Laboratory results published in US10196436B2, “Inhibitors of the fibroblast growth factor receptor” (BLUEPRINT MEDICINES CORPORATION, priority 2012, dated 2019).
“Also recorded” adds a separate entry of the source. Where two headings read alike, the source gives them in different places.

How the values were obtained:
wild type FGFR-4 = wild type FGFR-4 (Homo sapiens (Human), UniProt P22455); test: FGFR-4 wild type assay at Km (Caliper electrophoretic mobility shift); format: biochemical; details: for IC50: read-out: FGFR4 IC50; for Ratio FGFR1/FGFR4: [IC50 for FGFR1]/[IC50 for FGFR4]
Sequence of wild type FGFR-4 (P22455 22-802): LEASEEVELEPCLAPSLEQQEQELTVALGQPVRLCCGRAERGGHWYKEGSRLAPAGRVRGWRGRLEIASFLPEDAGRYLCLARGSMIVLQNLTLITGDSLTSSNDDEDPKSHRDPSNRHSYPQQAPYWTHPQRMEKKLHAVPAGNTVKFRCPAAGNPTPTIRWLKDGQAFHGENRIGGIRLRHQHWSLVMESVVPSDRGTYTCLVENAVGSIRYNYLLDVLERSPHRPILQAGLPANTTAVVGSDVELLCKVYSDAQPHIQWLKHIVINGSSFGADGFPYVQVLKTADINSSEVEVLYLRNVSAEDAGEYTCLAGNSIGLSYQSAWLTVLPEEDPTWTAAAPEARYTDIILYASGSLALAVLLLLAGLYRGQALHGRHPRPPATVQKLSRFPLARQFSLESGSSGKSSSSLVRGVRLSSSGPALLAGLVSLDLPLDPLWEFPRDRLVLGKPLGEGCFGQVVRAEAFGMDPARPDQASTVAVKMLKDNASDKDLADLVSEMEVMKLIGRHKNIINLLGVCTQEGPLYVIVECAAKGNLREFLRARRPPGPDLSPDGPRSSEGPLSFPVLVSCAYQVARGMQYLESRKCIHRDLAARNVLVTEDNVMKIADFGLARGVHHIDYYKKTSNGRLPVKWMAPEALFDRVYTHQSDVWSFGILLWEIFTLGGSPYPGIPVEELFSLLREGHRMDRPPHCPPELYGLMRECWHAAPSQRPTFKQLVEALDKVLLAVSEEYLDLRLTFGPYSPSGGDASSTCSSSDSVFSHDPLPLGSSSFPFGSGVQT
Experimental: (§1) In order to assess the activity of chemical compounds against the relevant kinase of interest, the Caliper LifeSciences electrophoretic mobility shift technology platform is utilized. Fluorescently labeled substrate peptide is incubated in the presence dosed levels of compounds, a set concentration of kinase and of ATP, so that a reflective proportion of the peptide is phosphorylated. At the end of the reaction, the mix of phosphorylated (product) and non-phosphorylated (substrate) peptides are passed through the microfluidic system of the Caliper LabChip® EZ Reader II, under an applied potential difference. The presence of the phosphate group on the product peptide provides a difference in mass and charge between the product peptide and the substrate peptide, resulting in a separation of the substrate and product pools in the sample. As the pools pass the LEDS within the instrument, these pools are detected and resolved as separate peaks. The ratio between these peaks therefore reflects the activity of the chemical matter at that concentration in that well, under those conditions.
(§2) The reaction was stopped by the addition of 70 ul of Stop buffer (100 mM HEPES pH 7.5, 0.015% Brij 35, 35 mM EDTA and 0.2% of Coating Reagent 3 (Caliper Lifesciences)). The plate was then read on a Caliper LabChip® EZ Reader II (protocol settings: −1.9 psi, upstream voltage −700, downstream voltage −3000, post sample sip 35 s).

[1] = system: MDA-MB-453 cells, which harbor an activating FGFR4 mutation; test: Cellular potency: phosphorylation of Erk in MDA-MB-453 cells (immunoblot); details: Homo sapiens, MDA-MB-453, 1 h, read-out: Potency (pErk IC50)
Experimental: Dose response in MDA-MB-453 cells, which harbor an activating FGFR4 mutation, was measured as follows. Briefly, MDA-MB-453 cells were seeded at 2.5×10^6 cells/6 well, and starved overnight. Compounds were added at varying concentrations (3000, 1000, 300, 100, and 30 nM) for 1 hour. Samples were collected and lysed for immunoblot analysis. The phosphorylation of Erk was measured and the average pErk value of three replicates was plotted with three parameter dose-response (inhibition) curve fit using Prism GraphPad software, which was used to determine the IC50 values.

panel of kinase assays = test: Kinase panel selectivity score from percent of DMSO control; details: kinases with POC less than 10 at 3 μM divided by total distinct kinases tested
[2] = biological target: GST-tagged recombinant wild type FGFR-4 (Homo sapiens (Human), UniProt P22455); test: Covalency: mass spectrometry of protein-inhibitor complex; format: binding; details: 300 uM compound, 75 uM FGFR-4, 3 hours room temperature then 13 hours 4° C.
Sequence of GST-tagged recombinant wild type FGFR-4 (P22455 460-802): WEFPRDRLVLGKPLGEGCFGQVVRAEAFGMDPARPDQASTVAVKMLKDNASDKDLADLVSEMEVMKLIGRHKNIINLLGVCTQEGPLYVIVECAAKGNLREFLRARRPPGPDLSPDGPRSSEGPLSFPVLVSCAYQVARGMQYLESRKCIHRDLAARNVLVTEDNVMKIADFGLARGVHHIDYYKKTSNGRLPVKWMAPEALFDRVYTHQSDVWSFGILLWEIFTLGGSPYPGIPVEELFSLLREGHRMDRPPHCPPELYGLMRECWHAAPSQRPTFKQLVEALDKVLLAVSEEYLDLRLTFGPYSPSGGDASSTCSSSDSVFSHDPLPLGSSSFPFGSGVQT
Experimental: The protein-inhibitor complex was then desalted using Pierce detergent removal columns (Thermo Pierce). The unmodified protein and protein-inhibitor complex were analyzed by electron spray mass spectrometry to determine their respective molecular weights.

FGFR-4 = FGFR-4 (Homo sapiens (Human), UniProt P22455); test: Crystal structure of compound bound to FGFR-4; format: binding
Sequence of FGFR-4 (P22455 22-802): as the sequence (P22455 22-802) above

wild type FGFR-1 = wild type FGFR-1 (Homo sapiens (Human), UniProt P11362); test: FGFR-1 wild type assay at Km (Caliper electrophoretic mobility shift); format: biochemical; details: 400 uM ATP, 90 minutes, 25 C; read-out: FGFR1 IC50
Sequence of wild type FGFR-1 (P11362 22-822): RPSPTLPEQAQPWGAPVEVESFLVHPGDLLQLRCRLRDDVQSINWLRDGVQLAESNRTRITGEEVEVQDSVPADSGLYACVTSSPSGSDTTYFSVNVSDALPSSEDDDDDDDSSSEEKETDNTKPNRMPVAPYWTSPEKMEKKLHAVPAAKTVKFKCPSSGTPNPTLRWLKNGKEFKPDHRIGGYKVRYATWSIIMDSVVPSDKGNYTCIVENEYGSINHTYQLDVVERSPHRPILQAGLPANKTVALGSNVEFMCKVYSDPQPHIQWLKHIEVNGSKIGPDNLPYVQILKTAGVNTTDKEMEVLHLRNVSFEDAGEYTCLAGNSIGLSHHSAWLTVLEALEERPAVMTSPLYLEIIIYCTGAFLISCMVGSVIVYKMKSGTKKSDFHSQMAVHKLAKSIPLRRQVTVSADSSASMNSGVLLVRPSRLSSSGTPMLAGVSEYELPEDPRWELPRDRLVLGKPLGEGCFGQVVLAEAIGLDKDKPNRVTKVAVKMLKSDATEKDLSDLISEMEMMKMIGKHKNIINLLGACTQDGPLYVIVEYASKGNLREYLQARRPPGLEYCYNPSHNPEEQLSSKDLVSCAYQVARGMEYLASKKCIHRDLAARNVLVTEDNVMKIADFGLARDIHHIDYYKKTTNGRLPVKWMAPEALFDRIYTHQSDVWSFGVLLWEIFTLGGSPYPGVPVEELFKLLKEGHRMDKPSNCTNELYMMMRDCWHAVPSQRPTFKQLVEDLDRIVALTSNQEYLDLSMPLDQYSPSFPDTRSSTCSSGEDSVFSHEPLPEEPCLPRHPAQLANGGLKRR
Experimental: as §1
as §2, with “EZReader 2” for “LabChip® EZ Reader II”

Hep3B xenograft tumors = test: Hep3B liver cancer cell subcutaneous xenograft model, tumor growth inhibition; format: in vivo, Mus Musculus
Experimental: […] female nude mice (Mus Musculus) age 6 to 8 weeks were used. Tumor cell culture and inoculation: Hep3B cells were cultured with EMEM medium (Invitrogen, USA) supplemented with 10% FBS (Gibco, Australia). The cells were harvested in 90% confluence, and the viability was no less than 90%. Mice were implanted subcutaneously (s.c.) with 200 μL of 10×10^6 Hep3B cells in 50% Matrigel in the right flank at the beginning of the study.
Animal grouping and dosing schedule: Ten days after cell implantation, when tumors reached an average volume of 199 mm^3, 45 mice were selected based on tumor volume and randomly assigned to 5 treatment groups (n=9). The day of randomization was denoted as Do and the treatment was started from then on.
(§3) Tumor volume and body weight measurements: Tumor size was measured twice per week in two dimensions using a caliper, and the volume was expressed in mm^3 using the formula: V=0.5 a×b^2 where a and b were the long and short diameters of the tumor, respectively. Body weight was measured at least twice weekly.

Hep3B cells = test: Induction of apoptosis, Caspase-Glo3/7 assay in Hep3B cells; format: cell-based; details: 6 hours
Experimental: Hep3B cells were seeded at 20 k/well in 96-well white plates in 200 ul of DMEM/5% FBS overnight. The next day compound was added at a final DMSO concentration of 0.1% and incubated for 6 hours. Caspase activity was measured according to manufacture instruction (Caspase-Glo3/7 Assay (Promega)). Briefly, 100 ul of Caspase-Glo3/7 reagent was added to each well and incubated for 1 hour in the dark. Luminescence was measured using EnVision.

[3] = format: in vivo; details: Hep3B-bearing nude mice, entire study period, current dosages and dosing schedule
Experimental: as §3
Body weight change (%) of Hep3B-bearing nude mice: FIG. 8 is a line graph depicting the body weight change (%) during the entire study period.

SMILES | IC50 (wild type FGFR-4; 400 uM ATP, 90 minutes, 25 C) [nM] | Ratio FGFR1/FGFR4 (wild type FGFR-4) | IC50 [1] [nM] | other results
C=CC(=O)Nc1cccc(C)c1Nc1ncc2cc(-c3c(Cl)c(OC)cc(OC)c3Cl)cc(OC)c2n1 [COMPOUND 41] | < 10 | A (the ratio is >500) | 1 to 10 | selectivity score [S(10) @3 μM] (panel of kinase assays): ≤ 0.030
C=CC(=O)Nc1cccc(C)c1Nc1ncc2cc(-c3c(Cl)c(OC)cc(OC)c3Cl)cnc2n1 [COMPOUND 26, N-(2-((6-(2,6-dichloro-3,5-dimethoxyphenyl)pyrido[2,3-d]pyrimidin-2-yl)amino)-3-methylphenyl)acrylamide] | < 10 | A (the ratio is >500) | 1 to 10 | –
C=CC(=O)N(CCCCN(CC)CC)c1ncc2cc(-c3cc(OC)cc(OC)c3)c(NC(=O)NC(C)(C)C)nc2n1 [COMPOUND 52, N-(7-(3-(tert-butyl)ureido)-6-(3,5-dimethoxyphenyl)pyrido[2,3-d]pyrimidin-2-yl)-N-(4-(diethylamino)butyl)acrylamide] | < 10 | C (the ratio is ≥100 and <200) | – | mass difference between protein-inhibitor complex and unmodified protein [2]: 575.1252 daltons; residue bound in crystal structure (FGFR-4): binds to the cysteine at residue 552 of FGFR-4
C=CC(=O)Nc1cccc(F)c1Nc1ncc2cc(-c3c(Cl)c(OC)cc(OC)c3Cl)ccc2n1 [COMPOUND 27] | < 10 | C (the ratio is ≥100 and <200) | 1 to 10 | selectivity score [S(10) @3 μM] (panel of kinase assays): ≤ 0.030
C=CC(=O)Nc1cccc(C)c1Nc1cc2c(cn1)cc(-c1cc(OC)cc(OC)c1)c(=O)n2C [COMPOUND 18] | – | – | 10 to 100 | IC50 (wild type FGFR-1): > 1000 nM
COc1cc(CCc2cc(NC(=O)c3ccc(N4CC(C)NC(C)C4)cc3)n[nH]2)cc(OC)c1 (stereo not shown) [BGJ398, reference compound] | – | – | – | tumor volume vs vehicle group (Hep3B xenograft tumors; 20 mg/kg PO QD, entire study, nude mice): significant difference in tumor volume between BGJ398 (20 mg/kg PO QD) and vehicle groups was not observed; induction of apoptosis (caspase activity) (Hep3B cells): induction of apoptosis, although at a higher concentration
C=CC(=O)Nc1cccc(F)c1Nc1cc2c(cn1)cc(-c1c(Cl)c(OC)cc(OC)c1Cl)c(=O)n2C [COMPOUND 46] | < 10 | E (the ratio is >10 and <50) | < 1 | –
C=CC(=O)N(CCCCN(CC)CC)c1ncc2cc(-c3c(Cl)c(OC)cc(OC)c3Cl)c(NC(=O)NC(C)(C)C)nc2n1 [COMPOUND 55, N-(7-(3-(tert-butyl)ureido)-6-(2,6-dichloro-3,5-dimethoxyphenyl)pyrido[2,3-d]pyrimidin-2-yl)-N-(4-(diethylamino)butyl) acrylamide] | < 10 | A (the ratio is >500) | – | selectivity score [S(10) @3 μM] (panel of kinase assays): ≤ 0.030
CNC(=O)c1cc(Oc2ccc(NC(=O)Nc3ccc(Cl)c(C(F)(F)F)c3)cc2)ccn1 [Sorafenib, reference compound] | – | – | – | tumor volume vs vehicle group (Hep3B xenograft tumors; 30 mg/kg PO QD, Day 4 to Day 19, nude mice): Statistically significant reduction of tumor volumes
C=CC(=O)Nc1cccc(C)c1Nc1ncc2nc(-c3c(Cl)c(OC)cc(OC)c3Cl)c(=O)n(C)c2n1 [COMPOUND 45, N-(2-((6-(2,6-dichloro-3,5-dimethoxyphenyl)-8-methyl-7-oxo-7,8-dihydropteridin-2-yl)amino)-3-methylphenyl)acrylamide] | < 10 | E (the ratio is >10 and <50) | < 1 | IC50 (wild type FGFR-1): > 1000 nM
C=CC(=O)Nc1cccc(C)c1Nc1cc2c(cn1)cc(-c1c(Cl)c(OC)cc(OC)c1Cl)c(=O)n2C [COMPOUND 39] | < 10 | E (the ratio is >10 and <50) | < 1 | IC50 (wild type FGFR-1): > 1000 nM
C=CC(=O)Nc1cc(N2CCOCC2)cc(C)c1Nc1ncc2cc(-c3c(Cl)c(OC)cc(OC)c3Cl)ccc2n1 [COMPOUND 53] | < 10 | C (the ratio is ≥100 and <200) | 1 to 10 | –
C=CC(=O)Nc1cccc(C)c1Nc1ncc2cc(-c3c(Cl)c(OC)cc(OC)c3Cl)cc(F)c2n1 [COMPOUND 34, N-(2-((6-(2,6-dichloro-3,5-dimethoxyphenyl)-8-fluoroquinazolin-2-yl)amino)-3-methylphenyl)acrylamide] | – | – | 1 to 10 | IC50 (wild type FGFR-4): < 10 nM
C=CC(=O)Nc1cccc(C)c1Nc1ncc2cc(-c3c(Cl)c(OC)cc(OC)c3Cl)ccc2n1 [COMPOUND 25, N-(2-((6-(2,6-dichloro-3,5-dimethoxyphenyl)quinazolin-2-yl)amino)-3-methylphenyl)acrylamide] | – | – | 1 to 10 | tumor volume vs vehicle group (Hep3B xenograft tumors; 100 mg/kg PO BID, Day 4 to Day 19, nude mice): Statistically significant reduction of tumor volumes; also recorded: regressed; tumor volume vs vehicle group (Hep3B xenograft tumors; 300 mg/kg PO BID, Day 4 to Day 19, nude mice): Statistically significant reduction of tumor volumes; also recorded: almost disappeared; body weight change / tolerability [3]: well tolerated; induction of apoptosis (caspase activity) (Hep3B cells): potent induction of apoptosis
C#CC(=O)NCc1cccn2c(-c3cc(NC(=O)NCC(F)(F)F)cc(OC(C)C)c3)cnc12 [COMPOUND 20, N-((3-(3-isopropoxy-5-(3-(2,2,2-trifluoroethyl)ureido)phenyl)imidazo[1,2-a]pyridin-8-yl)methyl)propiolamide] | – | – | > 100 | IC50 (wild type FGFR-1): > 1000 nM
C=CC(=O)Nc1ccc(F)c(C)c1Nc1ncc2cc(-c3c(Cl)c(OC)cc(OC)c3Cl)ccc2n1 [COMPOUND 33] | – | F (the ratio of [IC50 for FGFR1]/[IC50 for FGFR4] is less than 10) | 1 to 10 | IC50 (wild type FGFR-1): > 1000 nM
C=CC(=O)Nc1ccccc1Nc1cc2c(cn1)cc(-c1c(Cl)c(OC)cc(OC)c1Cl)c(=O)n2C [COMPOUND 31] | < 10 | B (the ratio is ≥200 and <500) | < 1 | –
